Data from the SangsterLogP compilation.

SMILES	logP
O=C(NCCCCN1CCc2ccccc2C1)C1CCC1	3.3
O=C(NCCN1CCc2ccccc2C1)C1CCC2CCCC21 (configuration not stated)	4.37
O=C(NCCN1CCc2ccccc2C1)C1CCCCC1	3.14
CC(=O)NCCCN1CCc2ccccc2C1	2.66
O=C(NCCCCN1CCc2ccccc2C1)C1CCC2CCCC21 (configuration not stated)	4.46
O=C(NCCCCN1CCc2ccccc2C1)C12CC3CC(CC(C3)C1)C2	4.82
O=C(NCCN1CCc2ccccc2C1)C1CCC1	2.9
O=C(NCCCN1CCc2ccccc2C1)C1CCCCC1	3.44
O=C(NCCCCN1CCc2ccccc2C1)C1CC1	3.02
O=C(CC1CC2CCC1C2)NCCCCN1CCc2ccccc2C1 (configuration not stated)	4.58
O=C(NCCCN1CCc2ccccc2C1)C12CC3CC(CC(C3)C1)C2	5.14
CC(=O)NCCN1CCc2ccccc2C1	1.83
O=C(CC1CC2CCC1C2)NCCN1CCc2ccccc2C1 (configuration not stated)	4.26
O=C(NCCN1CCc2ccccc2C1)C1CC1	2.76
CC(C)C(=O)NCCN1CCc2ccccc2C1	2.87
CC(C)(C)C(=O)NCCN1CCc2ccccc2C1	3.13
O=C(NCCCN1CCc2ccccc2C1)C1CCCC1	3.45
O=C(NCCCN1CCc2ccccc2C1)C1CCC1	3.12
CC(C)(C)C(=O)NCCCN1CCc2ccccc2C1	3.46
CC(C)(C)C(=O)NCCCCN1CCc2ccccc2C1	3.31
CC(C)C(=O)NCCCN1CCc2ccccc2C1	2.56
CC(C)C(=O)NCCCCN1CCc2ccccc2C1	2.93
O=C(NCCCN1CCc2ccccc2C1)C1CC1	2.75
O=C(NCCCN1CCc2ccccc2C1)C1CCC2CCCC21 (configuration not stated)	4.5
O=C(NCCN1CCc2ccccc2C1)C1CCCC1	3.52
O=C(NCCN1CCc2ccccc2C1)C12CC3CC(CC(C3)C1)C2	4.61
CC(=O)NCCCCN1CCc2ccccc2C1	2.3
